{"source": "patent US5296485A", "about": "“Substituted N-phenylpiperidines and drugs therefrom” (BASF Aktiengesellschaft, priority 1991, dated 1994)", "key": {"sigma binding sites": {"test_system": "sigma binding sites", "conditions": "J. Pharmacol. Exp. Ther. 238 (1986) 739; cited from earlier work"}, "guinea-pig hearts": {"test_system": "guinea-pig hearts", "assay": "ECG measurement of QT prolongation on isolated perfused (Langendorff) guinea-pig hearts", "set-up": "species or system guinea-pig (male Duncin-Hartley)", "conditions": "Cavia porcellus, 0.25 h; isolated guinea-pig heart, Krebs-Henseleit perfusate, 37° C., cumulative addition at 15 min intervals; linear regression on log dose; read-out: ED20% (dose at which the QT interval is increased by 20% from the initial level)", "from_the_text": "In this connection, the cardiac cycle is divided into systole (contraction of the heart), also called QT interval, and diastole (relaxation of the heart with filling of the ventricles with blood). Repolarization inhibitors increase the QT interval but have a negligible effect on the atrioventricular conduction time (PQ interval) and the period of isometric contraction (QRS time, from start of systole to opening of the semilunar valves) (see Pschyrembel, 254th Edition, 1982).\nThe activity of the compounds according to the invention as repolarization inhibitors can be investigated in animal experiments by ECG measurements on, for example, guinea-pig hearts (see Basic Res. Cardiol. 82 (1987) 437; J. Pharmacol. Methods 21 (1989) 195). Comparison of the activities of various substances is based, for example, on the dose of an active substance at which the QT interval is increased by 20% from the initial level (ED20%). To do this, the logarithms of the doses of the substances are plotted against the experimentally found relative changes in the QT interval, and linear regression is used to determine the equation of a straight line from which the ED20% can then be calculated.\nThis method was used to determine the ED20% values of compounds according to the invention (see Table 1) . The comparison substance was D-sotalol [4'-(1-hydroxy-2-(isopropylamino)ethyl)methanesulfonanilide].\nThe experimental animals were male Duncin-Hartley guinea-pigs weighing from 300 to 350 g. 30 min after administration of 1250 I.U. of heparin/kg of body weight into the abdominal cavity, the animals were sacrificed by a blow to the back of the neck. The common carotid arteries were severed for exsanguination, then the thoracic cavity was opened and the heart was removed and connected to a perfusion apparatus. The Langendorff perfusion was carried out with oxygen-enriched Krebs-Henseleit solution (NaCl 6896 mg/l; KCl 350 mg/l; MgSO4 285 mg/l; CaCl2 370 mg/l; KH2 PO4 161 mg/l; NaHCO3 2090 mg/l; glucose 2000 mg/1) at 37° C. The perfusion volume per unit time was 4 to 6 ml/min, the total volume was 100 ml and the perfusion pressure was 60 to 70 mm Hg. Circulating perfusion was carried out after an equilibration time of 30 min.\nTwo silver electrodes attached to the surface of the heart in the upper region of the left coronary artery and on the rear of the heart at the level of the valve were used for the ECG recordings. The PQ and QT intervals and QRS times, and the heart rate, were measured.\nThe substances were added to the perfusate cumulatively at 15 min intervals."}, "sigma receptor [1]": {"molecular_target": "sigma receptor", "assay": "Sigma receptor binding ([^3 H]-ditolylguanidine)", "conditions": "rat cerebra membranes, pH 7.7, 37° C., read-out: Activity constants Ki for the [^3 H]-ditolylguanidine binding site"}, "humans": {"test_system": "humans", "conditions": "substances which bind to sigma receptors; J. Pharmacol. Exp. Ther. 197 (1976) 517; cited from earlier work"}, "sigma receptor [2]": {"test_system": "sigma receptor", "conditions": "cited from earlier work"}}, "note": "pKi: −log10 of the molar value. Where two headings read alike, the source gives them in different places."}
{"smiles": "OC(CCCN1CCN(c2ncc(F)cn2)CC1)c1ccc(F)cc1", "note": "(stereo not drawn) [BMY 14802, α-(4-fluorophenyl)-4-(5-fluoro-2-pyrimidinyl)-1-piperazinebutanol]", "values": [{"measurement": "affinity for sigma binding sites", "setting": "sigma binding sites", "result": "high affinity"}]}
{"smiles": "CC(C)NC[C@@H](O)c1ccc(NS(C)(=O)=O)cc1", "note": "[D-sotalol, 4'-(1-hydroxy-2-(isopropylamino)ethyl)methanesulfonanilide]", "values": [{"measurement": "EC20", "setting": "guinea-pig hearts", "result": 16000, "unit": "nM"}]}
{"smiles": "CN(Cc1ccccc1)CC1CCN(c2ccc([N+](=O)[O-])cc2)CC1", "note": "[Example 2, 4-(N-Benzyl-N-methylaminomethyl)-1-(4-nitrophenyl)piperidine]", "values": [{"measurement": "EC20", "setting": "guinea-pig hearts", "result": 420, "unit": "nM"}, {"measurement": "pKi", "setting": "sigma receptor [1]", "result": 7.96}]}
{"smiles": "N#Cc1ccc(N2CCC(N3CCN(c4ccc([N+](=O)[O-])cc4)CC3)CC2)cc1", "note": "[Example 3, N-[1-(4-Cyanophenyl)-4-piperidinyl)-N'-(4-nitrophenyl)piperazine]", "values": [{"measurement": "EC20", "setting": "guinea-pig hearts", "result": 31, "unit": "nM"}]}
{"smiles": "O=[N+]([O-])c1ccc(N2CCC(N3CCC(c4ccccc4)CC3)CC2)cc1", "note": "[Example 8, 1-(4-Nitrophenyl)-4-(4-phenyl-1-piperidinyl)piperidine]", "values": [{"measurement": "pKi", "setting": "sigma receptor [1]", "result": 8.55}]}
{"smiles": "CN(Cc1ccc(NS(C)(=O)=O)cc1)CC1CCN(c2ccc(NS(C)(=O)=O)cc2)CC1", "note": "[Example 10, 1-(4-Methanesulfonamidophenyl)-4-[N-(4-methanesulfonamidobenzyl)-N-methylaminomethyl]piperidine]", "values": [{"measurement": "EC20", "setting": "guinea-pig hearts", "result": 960, "unit": "nM"}]}
{"smiles": "CN(Cc1ccccc1)C1CCCN(c2ccc([N+](=O)[O-])cc2)C1", "note": "(stereo not shown) [Example 11, 3-(N-benzyl-N-methylamino)-1-(4-nitrophenyl)piperidine]", "values": [{"measurement": "EC20", "setting": "guinea-pig hearts", "result": 1100, "unit": "nM"}, {"measurement": "pKi", "setting": "sigma receptor [1]", "result": 8.70}]}
{"smiles": "CN(CC(O)c1ccc(F)cc1)C1CCN(c2ccc([N+](=O)[O-])cc2)CC1", "note": "(stereo not shown) [Example 12, 4-[N-[2-(4-Fluorophenyl)-2-hydroxyethyl]-N-methylamino]-1-(4-nitrophenyl)piperidine]", "values": [{"measurement": "EC20", "setting": "guinea-pig hearts", "result": 210, "unit": "nM"}]}
{"smiles": "C[C@H]1[C@H]2Cc3ccc(O)cc3[C@]1(C)CCN2CC1CC1", "note": "[cyclazocine]", "values": [{"measurement": "psychotomimetic effects in humans", "setting": "humans", "result": "psychotomimetic effects"}]}
{"smiles": "O=C(CCCN1CCC(O)(c2ccc(Cl)cc2)CC1)c1ccc(F)cc1", "note": "[haloperidol]", "values": [{"measurement": "affinity for sigma binding sites", "setting": "sigma binding sites", "result": "high affinity"}, {"measurement": "affinity of the haloperidol-sensitive sigma receptors", "setting": "sigma receptor [2]", "result": "high affinity"}]}
{"smiles": "CNC1(c2ccccc2Cl)CCCCC1=O", "note": "(stereo not shown) [ketamine]", "values": [{"measurement": "psychotomimetic effects in humans", "setting": "humans", "result": "psychotomimetic effects"}]}
{"smiles": "CC(C)=CCN1CCC2(C)c3cc(O)ccc3CC1C2C", "note": "(stereo not shown) [pentazocine]", "values": [{"measurement": "psychotomimetic effects in humans", "setting": "humans", "result": "psychotomimetic effects"}]}
{"smiles": "c1ccc(C2(N3CCCCC3)CCCCC2)cc1", "note": "[phencyclidine]", "values": [{"measurement": "affinity of the haloperidol-sensitive sigma receptors", "setting": "sigma receptor [2]; statement in words on the receptor used in the assay", "result": "low affinity"}]}
